In ChEMBL document CHEMBL1157539, “Thousands of chemical starting points for antimalarial lead identification” (Nature, 2010):

System: Plasmodium falciparum
Test: GSK_TCMDC: Inhibition of Plasmodium falciparum 3D7 in whole erythrocytes, using parasite LDH activity as an index of growth.
Type: functional, organism-based
Conditions: Plasmodium falciparum, 3D7

Structure (SMILES)	XC50
Cc1cccc2nc(-c3ccc(-c4ccc(CN5CCN(CCC#N)CC5)cc4)cc3)[nH]c12	864 nM
Cn1c(NC(=O)C2CCCN(C(=O)c3ccc(O)c(-c4ccc(Cl)c(Cl)c4)c3)C2)nc2ccccc21 (stereo unspecified)	751 nM
CCCc1cc2c3c(N)nc(N)nc3ccc2n1C(CC)CC	3.2 nM
O=C(Cc1c[nH]cn1)Nc1ccc(-c2cccc(-c3nc4cc(F)ccc4[nH]3)c2)cc1	797 nM
O=C1C(c2ccccc2)=C(Nc2cc(Cl)cc(Cl)c2)c2ccccc21	372 nM
Cc1[nH]c(C)c(-c2ccc(CCc3cccc(C(F)(F)F)c3)nc2)c(=O)c1Cl	101 nM
CCCC(C)N(Cc1ccc(C(C)(C)C)cc1)C(=O)c1ccc(OC)cc1 (stereo unspecified)	111 nM
CN1CCCC1CCNc1ncc2c(-c3ccc(NC(=O)Nc4cc(C(F)(F)F)ccc4F)cc3)nn(C)c2n1 (stereo unspecified)	344 nM
CC1(C)C(=O)Nc2ccc3c(c21)CC1SC(=O)NN=C31 (stereo unspecified)	1490 nM
COc1ccccc1-c1nc2c(ccc3nc(N)nc(N)c32)[nH]1	176 nM
N#Cc1ccc2c(c1)CCN(CCC1CCC(NC(=O)/C=C/c3cnc4ccccc4c3)CC1)CC2 (stereo unspecified)	1210 nM
O=C(Cn1c(=O)oc2ccccc21)N1CCC(n2c(=O)n(CCCN3CCOCC3)c3ccccc32)CC1	774 nM
CN(c1cc(NC(=O)c2ccccc2)ccn1)C1CCN(Cc2cccc(F)c2)CC1	738 nM
CS(=O)(=O)c1ccc(CNCc2cccc(-c3cccc(-c4nc5cc(F)ccc5[nH]4)c3)c2)cc1	559 nM
Clc1ccc(CNc2ccnc(NCCc3coc4ccccc34)n2)c(Cl)c1	1170 nM
Cc1ccc(NC(=O)c2ccc(CN3CCCN(Cc4cccc(O)c4)CC3)cc2)cc1C	864 nM
Cc1cc(CNCCCCCNCc2cccc([N+](=O)[O-])c2)ccc1O	784 nM
CCCCC#Cc1cnc2nc(N)[nH]c(=O)c2n1	646 nM
Cn1c(-c2ccccc2)cc2c3c(=O)cc(C(F)(F)F)[nH]c3ccc21	849 nM
O=C1C2C(c3ccc(Cl)c(Cl)c3)N3CC(OCc4ccccc4)CC3(C(=O)O)C2C(=O)N1c1ccc(Br)cc1 (stereo unspecified)	336 nM
CC(C)CNCc1cccc(-c2cccc(CN(CCCN3CCN(C)CC3)C(=O)/C=C/c3ccccc3)c2)c1	926 nM
CC(=O)Nc1nc(C(=O)Nc2ccc(-c3cccc(-c4nc5ccccc5[nH]4)c3)cc2)cs1	552 nM
Cc1cccc2nc(-c3ccc(-c4cccc(NC(=O)CCc5c[nH]cn5)c4)cc3)[nH]c12	410 nM
COc1ccc2[nH]ccc(=NN=Cc3ccc(N(C)C)cc3)c2c1	799 nM
OC1CCCN(Cc2cccc(-c3ccc(-c4nc5cc(F)ccc5[nH]4)cc3)c2)C1 (stereo unspecified)	780 nM
COc1ccc(CCN(C)CCOc2ccc(NC(=O)c3cc(SC)cc4c(=O)c5ccccc5[nH]c34)cc2)cc1OC	1400 nM

Structure (SMILES)	XC50
COc1ccc(C23Oc4cc(OC)cc(OC)c4C2(O)C2(CC3c3ccccc3)SCCCS2)cc1 (stereo unspecified)	124 nM
Cc1nc(-c2cccc3c(NC(=O)Nc4ccc5nccc(N6CCN(C)CC6)c5c4)cccc23)no1	235 nM
Cc1cc(NC(c2ccc(Cl)cc2)c2ccc3cccnc3c2O)no1 (stereo unspecified)	1090 nM
O=C(/C=C/c1ccc(Cl)c(Cl)c1)Nc1cccc(CN2CCC(c3c[nH]c4ccccc34)CC2)c1	670 nM
COc1ccc(CN2CCN(CCOC(c3ccc(F)cc3)c3ccc(F)cc3)CC2)c(O)c1	733 nM
CC(C)c1ccc(C=CC(=O)N2CCC(CCN3CCC(c4c[nH]c5ccccc45)CC3)CC2)cc1	1260 nM
CC(C)(C)c1cc(C(=O)Nc2cccnc2)cc(C(=O)Nc2cccnc2)c1	761 nM
Nc1cc(-c2cc3c(OCc4ccccc4)cccc3[nH]2)ccn1	1190 nM
CN(C)c1cccc2c1nc(-c1ccco1)n2CC1CCCN1 (stereo unspecified)	970 nM
Cc1cc(-c2ccc(NC(=O)N3CCc4cc(Cl)c(N5CCN(C)CC5)cc43)cc2)ccc1C#N	589 nM
COc1ccc(NC(=O)[C@H](Cc2ccccc2)Nc2cc(C)nc(NCCc3ccccc3OC)n2)cc1	529 nM
Cc1cc(NCC(c2ccccc2)c2ccccc2)nc(NCc2ccc(C(F)(F)F)cc2)n1	246 nM
Cc1cccc(CNc2ncc(C)c(NCCC(=O)Nc3ccccc3)n2)c1	1150 nM
O=C(NCCCc1ccccc1)c1csc(C2CCCN(C(=O)c3ccc(O)c(-c4ccccc4)c3)C2)n1 (stereo unspecified)	913 nM
O=C(/C=C/c1ccc(Cl)c(Cl)c1)NC1CCC(CN2CCC(c3c[nH]c4cc(O)ccc34)CC2)CC1 (stereo unspecified)	813 nM
CC(CN(C)C)C(=O)Nc1ccc(-c2ccc(-c3nc4ccccc4[nH]3)cc2)cc1 (stereo unspecified)	741 nM
C=CCNC(=O)C(C)c1ccc2cc(OC)ccc2c1 (stereo unspecified)	420 nM
Cn1nc(-c2cccc(CNC3CCc4ccccc43)c2)c2cnc(NCCCN3CCCC3)nc21 (stereo unspecified)	877 nM
CC(=O)c1c[nH]c(C(=O)Nc2ccc(-c3cn4ccccc4n3)cc2)c1	890 nM
COc1cccc2cc(C(=O)N[C@@H](CC(C)C)C(=O)NC3CC[C@@H](C)N(C(=O)Nc4ccncc4)CC3=O)oc12 (stereo partly specified)	292 nM
COc1ccc(CNC2CCN(C)CC2)cc1-c1ccc(S(=O)(=O)NC2CCC2)c(C)c1	993 nM
Cc1n[nH]c2cc(Nc3ccnc(Nc4cccc(CN5CCOCC5)c4)n3)ccc12	1580 nM
O=C(Nc1ccc(C(F)(F)F)cc1)c1cc(Br)cnc1NCCCn1ccnc1	968 nM
COc1ccc2c(=NN=Cc3ccncc3)cc(C)[nH]c2c1	814 nM
Cc1ccc2[nH]c(-c3ccccc3)cc(=NN=Cc3cccnc3)c2c1	691 nM
O=C(NCCCN1CCOCC1)c1ccc(-c2cccc(NC(=O)c3ccc(Cl)c(Cl)c3)c2)cc1	683 nM

Structure (SMILES)	XC50
CN1CCN(CCCN(Cc2ccc(-c3ccc(CNC4CCCC4)cc3)cc2)C(=O)CCC2CCCC2)CC1	886 nM
Cc1cc(C)c(C)c(S(=O)(=O)N2CCCCC(c3ccc(F)c(F)c3)=N2)c1C	706 nM
CCC(C)(C)C1CCc2[nH]c3ccccc3c(=O)c2C1 (stereo unspecified)	384 nM
CN1CCc2cc(I)c(O)cc2C1Cc1ccccc1Cl (stereo unspecified)	788 nM
CCCc1cc(Cc2cnc(N)nc2N)cc(CCC)c1O	277 nM
COc1ccc2c(=NN=CC=Cc3ccccc3)cc(C)[nH]c2c1	842 nM
COC(=O)c1cccc(CNCc2ccc(-c3ccc(-c4nc5cccc(C)c5[nH]4)s3)cc2)c1	402 nM
N#Cc1cccc(Nc2nccc(NCC(O)c3ccccc3C(F)(F)F)n2)c1 (stereo unspecified)	827 nM
CN(C)Cc1cc2c(O)c(Cc3ccccc3)ccc2o1	1090 nM
CN1CC=C(c2csc3ccc(NC(=O)Nc4ccc(-c5ccncc5)c(Cl)c4)cc23)CC1	681 nM
COc1cccc(COCC(O)CN(CCc2ccccn2)C(=O)c2ccccc2F)c1 (stereo unspecified)	825 nM
CN(C)c1cc(NN=Cc2cc(Cl)ccc2O)nc(N(C)C)n1	703 nM
N#Cc1cccc(NC(=O)Nc2ccc(-c3csc(-c4nc5ccccc5[nH]4)c3)cc2)c1	152 nM
Cc1ccc2cc(NC(=O)c3cccc(C(=O)Nc4ccc5nc(C)ccc5c4)n3)ccc2n1	1170 nM
CC(CCc1ccccc1)NCC(O)c1cccc(C(F)(F)F)c1 (stereo unspecified)	709 nM
C=Cc1c(C2CCN(CCCCNC(=O)c3ccc(-c4ccc(C#N)cc4)cc3)CC2)ccc2c1CCCC2	878 nM
CC1CN=C(Nc2ncc(Cl)cc2Cl)N1 (stereo unspecified)	237 nM
O=C(Nc1ccsc1)Nc1cccc(-c2cccc(-c3nc4ccccc4[nH]3)c2)c1	117 nM
CCc1sc(CN(CCCNc2cc(=O)c3ccccc3[nH]2)Cc2sc(CC)c(Br)c2-c2ccsc2)c(-c2ccsc2)c1Br	94.6 nM
COc1cc(F)c2ncc(Cl)c([C@H](O)CN3CCC(NCc4cc5c(cn4)OCCO5)CC3)c2c1	95.2 nM
CC(C)COc1cc(C(=O)Nc2cnc3ccccc3c2)ccc1[N+](=O)[O-]	776 nM
COc1ccccc1CN1CCC(CNC(=O)c2cc(-c3cccc(C(F)(F)F)c3)cs2)C1 (stereo unspecified)	1310 nM
CCCCSc1ccc2nc(-c3c[nH]c4ccc(C#N)cc34)cn2c1	948 nM
CC1CN(c2cnn(Cc3cccc(NC(=O)Nc4cccc(C(F)(F)F)c4)c3)c(=O)c2Cl)CC(C)N1 (stereo unspecified)	818 nM
N#Cc1ccc2c(c1)CCN(CCC1CCC(NC(=O)c3ccc(-c4ccccn4)s3)CC1)CC2 (stereo unspecified)	1010 nM
Cc1cc(N(C)C)nc(Nc2ccc(NC(=O)Nc3ccccc3)cc2)n1	134 nM

Structure (SMILES)	XC50
Cc1cc(=O)[nH]c2cc(Nc3ccnc(Nc4cccc(C(N)=O)c4)n3)ccc12	1520 nM
N#Cc1ccc(N(CCOc2ccc(Cl)c(F)c2)Cc2ccccc2C(F)(F)F)cc1C(F)(F)F	685 nM
COCCNCc1ccc(-c2ccc3c(Nc4ccc(Cl)cc4F)ccnc3c2)o1	206 nM
O=C(Nc1ccc2c(c1)CCC2)c1cccc(N2CCN(c3ccncc3)CC2)c1	971 nM
CCOC(=O)CCCCCNC[C@H](O)c1ccccc1	328 nM
O=C(Nc1ccccc1)OCCOc1ccc(CC2SC(=O)NC2=O)cc1 (stereo unspecified)	371 nM
O=[N+]([O-])c1ccccc1C=NN=c1c2c([nH]c3ccccc13)CCCC2	311 nM
Cn1nc(C(F)(F)F)c(-c2ccc(F)cc2)c1NC(=O)Nc1ccc(F)cc1F	765 nM
N=C(N)CCN(Cc1ccccc1)c1ccc(Cl)cc1	257 nM
O=C(/C=C/c1ccc2ccccc2c1)NCC1(c2ccc(-c3ccccc3)cc2)CCOCC1	1520 nM
CCNc1cc(C)nc(Nc2ccc(NC(=O)c3ccccc3)cc2)n1	1020 nM
Nc1ncc(Cc2ccc3c(ccc4ccccc43)c2)c(N)n1	758 nM
COc1cccc(C(=O)NC(NC(=S)Nc2ccc(OC)cc2[N+](=O)[O-])C(Cl)(Cl)Cl)c1 (stereo unspecified)	758 nM
Cc1cc(N(CCCN(C)C)Cc2cc(F)cc(F)c2)nc(Nc2ccc(Cl)cc2)n1	536 nM
O=C(NC1CCC(N2CCN(c3cccc4[nH]ccc34)CC2)CC1)c1cc2cccnc2[nH]1 (stereo unspecified)	492 nM
Cn1c(Nc2cc(C(C)(C)C)on2)nc2cc(Nc3ccnc(Nc4cccc(CS(C)(=O)=O)c4)n3)ccc21	571 nM
COc1ccc2nccc([C@@H](O)CN3CCC(NCc4cc5cccc6c5n(c4=O)CCC6)CC3)c2c1	861 nM
SC(=Nc1ccc2c(c1)OCCO2)NN=Cc1ccccn1	1050 nM
Cc1cc(=O)c2cc(-c3ccc(OC(F)(F)F)cc3)ccc2[nH]1	476 nM
CC(C)(Oc1c(C2CCN(CCCCNC(=O)c3ccc(-c4ccc(C#N)cc4)cc3)CC2)ccc2c1CCCC2)C(N)=O	696 nM
CCCCCCNC(=O)C(N)CCCC(N)C(=O)NCCCCCC (stereo unspecified)	162 nM
CCN(CCCN1CCCCC1)c1cc(C)nc(Nc2cc(F)cc(F)c2)n1	570 nM
COc1cc(-c2nc(-c3ccncc3)c(-c3ccc4c(c3)CCC4=NO)[nH]2)ccc1OCCN1CCN(C)CC1	756 nM
